Results from patent US12060347B2 (BRISTOL-MYERS SQUIBB COMPANY, priority 2016, dated 2024).

Biological target: T1, human PAR4 (Homo sapiens, UniProt Q96RI0)
T1 construct: expressed in transfected cells; host or cells: HEK293 PAR4 Clone 1.2A (BMS Arctic ID 383940)
T1 sequence (Q96RI0 18-385): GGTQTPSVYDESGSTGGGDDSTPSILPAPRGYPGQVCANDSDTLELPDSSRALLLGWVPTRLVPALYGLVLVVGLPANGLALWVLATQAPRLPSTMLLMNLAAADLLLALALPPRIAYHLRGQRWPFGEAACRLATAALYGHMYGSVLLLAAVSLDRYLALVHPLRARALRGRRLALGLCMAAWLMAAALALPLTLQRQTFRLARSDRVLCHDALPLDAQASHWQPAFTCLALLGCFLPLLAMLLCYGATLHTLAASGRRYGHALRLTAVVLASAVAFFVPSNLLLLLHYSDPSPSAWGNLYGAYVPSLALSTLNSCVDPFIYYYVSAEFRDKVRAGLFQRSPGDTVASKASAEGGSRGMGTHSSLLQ
Test: PAR4 FLIPR assay: antagonism of agonist-peptide-induced calcium mobilization in PAR4-expressing HEK293 cells
Assay type: cell-based
Conditions: H-Ala-Phe(4-F)-[…]NH2-induced intracellular calcium mobilization, 11-point curves

SMILES | IC50 [nM]
COc1cnc2c(-c3nc4cc(F)c(O[C@@H](C)[C@@H](C)OC(=O)Nc5ccnc(CCO)c5)nc4s3)cc(C)cc2n1 [Example 717, (2R,3S)-3-((6-fluoro-2-(2-methoxy-7-methylquinoxalin-5-yl)thiazolo[5,4-b]pyridin-5-yl)oxy)butan-2-yl (2-(2-hydroxyethyl)pyridin-4-yl)carbamate] | 1.6
COc1cnc2c(-c3nc4cc(F)c(O[C@@H](C)[C@@H](C)OC(=O)Nc5ccc(CC(C)(C)O)nc5)nc4s3)cc(C)cc2n1 [Example 718, (2R,3S)-3-((6-fluoro-2-(2-methoxy-7-methylquinoxalin-5-yl)thiazolo[5,4-b]pyridin-5-yl)oxy)butan-2-yl (6-(2-hydroxy-2-methylpropyl)pyridin-3-yl)carbamate] | 1.7
COc1cnc2c(-c3nc4cc(F)c(O[C@@H](C)[C@@H](C)OC(=O)Nc5ccnc(OCCO)c5)nc4s3)cc(C)cc2n1 [Example 719, (2R,3S)-3-((6-fluoro-2-(2-methoxy-7-methylquinoxalin-5-yl)thiazolo[5,4-b]pyridin-5-yl)oxy)butan-2-yl (2-(2-hydroxyethoxy)pyridin-4-yl)carbamate] | 1.7
COc1cnc2c(-c3nc4cc(F)c(O[C@@H](C)[C@@H](C)OC(=O)Nc5ccnc(CO)c5)nc4s3)cc(C)cc2n1 [Example 723, (2R,3S)-3-((6-fluoro-2-(2-methoxy-7-methylquinoxalin-5-yl)thiazolo[5,4-b]pyridin-5-yl)oxy)butan-2-yl (2-(hydroxymethyl)pyridin-4-yl)carbamate] | 2.4
COc1cnc2c(-c3nc4cc(F)c(O[C@@H](C)[C@@H](C)OC(=O)Nc5ccc(OCCO)nc5)nc4s3)cc(C)cc2n1 [Example 725, (2R,3S)-3-((6-fluoro-2-(2-methoxy-7-methylquinoxalin-5-yl)thiazolo[5,4-b]pyridin-5-yl)oxy)butan-2-yl (6-(2-hydroxyethoxy)pyridin-3-yl)carbamate] | 0.8
COc1cnc2c(-c3nc4cc(F)c(O[C@@H](C)[C@@H](C)OC(=O)Nc5ccc(OCC(F)(F)CO)nc5)nc4s3)cc(C)cc2n1 [Example 726, (2R,3S)-3-((6-fluoro-2-(2-methoxy-7-methylquinoxalin-5-yl)thiazolo[5,4-b]pyridin-5-yl)oxy)butan-2-yl (6-(2,2-difluoro-3-hydroxypropoxy)pyridin-3-yl)carbamate] | 1.2

Results, then the compound that gave them:

IC50 [nM] | SMILES
3.2 | COc1cnc2c(-c3nc4cc(F)c(O[C@@H](C)[C@@H](C)OC(=O)Nc5cnc(CCO)nc5)nc4s3)cc(C)cc2n1 [Example 720, (2R,3S)-3-((6-fluoro-2-(2-methoxy-7-methylquinoxalin-5-yl)thiazolo[5,4-b]pyridin-5-yl)oxy)butan-2-yl (2-(2-hydroxyethyl)pyrimidin-5-yl)carbamate]
2.6 | COc1cnc2c(-c3nc4cc(F)c(O[C@@H](C)[C@@H](C)OC(=O)Nc5cnc(OCCO)nc5)nc4s3)cc(C)cc2n1 [Example 721, (2R,3S)-3-((6-fluoro-2-(2-methoxy-7-methylquinoxalin-5-yl)thiazolo[5,4-b]pyridin-5-yl)oxy)butan-2-yl (2-(2-hydroxyethoxy)pyrimidin-5-yl)carbamate]
1.4 | COc1cnc2c(-c3nc4cc(F)c(O[C@@H](C)[C@@H](C)OC(=O)Nc5cnc(O[C@H](C)CO)nc5)nc4s3)cc(C)cc2n1 [Example 722, (2R,3S)-3-((6-fluoro-2-(2-methoxy-7-methylquinoxalin-5-yl)thiazolo[5,4-b]pyridin-5-yl)oxy)butan-2-yl (2-(((R)-1-hydroxypropan-2-yl)oxy)pyrimidin-5-yl)carbamate]
2.1 | COc1cnc2c(-c3nc4cc(F)c(O[C@@H](C)[C@@H](C)OC(=O)Nc5cnc(O[C@@H](C)CO)nc5)nc4s3)cc(C)cc2n1 [Example 724, (2R,3S)-3-((6-fluoro-2-(2-methoxy-7-methylquinoxalin-5-yl)thiazolo[5,4-b]pyridin-5-yl)oxy)butan-2-yl (2-(((S)-1-hydroxypropan-2-yl)oxy)pyrimidin-5-yl)carbamate]
